Data on eight compounds can be found in ChEMBL document CHEMBL1201862, “PubChem BioAssay data set” (2004).

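Tested at 5 concentrations; 48 h exposure; 96-well plates; endpoints linearly interpolated, else capped at highest concentration. GI50 is the concentration that inhibits growth by half.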 Calls of active or inactive are those of the source. Rule as the data show it: active = GI50 up to about 1.1 µM and inactive = higher. A value given as a limit tells only on which side of the number the result lay.

Some test systems named below: PC-3; ACHN; KM12; NCI-H23; RXF 393; RPMI-8226; A549; COLO 205; U-251; OVCAR-4; CCRF-CEM; HCT-15; UACC-62; DU-145; SF-295; HOP-62; SNB-75; OVCAR-8; SF-539.
Holding throughout (assay): NCI-60 cell line screen, 48 h

As for `CCCCCCCCCCOC1C(C(O)CNCCCN(C)C)OC2OC3(CCCCC3)OC21` (stereo not given), the GI50 is 2.26 µM (inactive) in the assay with PC-3; 2.81 µM (inactive) in the assay on ACHN; 1.51 µM (inactive) in the assay on KM12; 1.48 µM (inactive) in the assay on NCI-H23; 1.93 µM (inactive) in the assay on RXF 393; 1.94 µM (inactive) in the assay on RPMI-8226. Besides, the GI50 in the assay on A549 is 3.32 µM (inactive); with COLO 205, 2 µM (inactive); in the assay with U-251, 1.84 µM (inactive); with OVCAR-4, 2.04 µM (inactive); in the assay with CCRF-CEM it was 1.71 µM (inactive); with HCT-15, 1.69 µM. Besides, the GI50 is 2.79 µM (inactive) in the assay on UACC-62; 3.35 µM (inactive) in the assay on DU-145; 1.86 µM (inactive) in the assay on SF-295; 1.75 µM (inactive) in the assay on HOP-62; 0.0491 µM (active) with SNB-75; 2.39 µM (inactive) with OVCAR-8.
Consider `CC1=CCC[C@]2(C)C1=CC(=O)O[C@H]2c1ccoc1`, for which the GI50 with PC-3, in the assay on ACHN, with KM12, in the assay on NCI-H23, with RXF 393 and in the assay on RPMI-8226 was > 100 µM (inactive) throughout. Further, the GI50 in the assay on A549 was > 100 µM (inactive); in the assay with COLO 205, > 100 µM (inactive); in the assay on U-251, > 100 µM (inactive); in the assay with OVCAR-4, > 100 µM (inactive); in the assay on CCRF-CEM it was > 100 µM (inactive); with HCT-15 it was above 100 µM. Besides, the GI50 with UACC-62, in the assay with DU-145, in the assay on SF-295, with HOP-62, in the assay with SNB-75 and with OVCAR-8 was > 100 µM (inactive) each time.
Consider `CCCCCCCCCCCCCCCC(=O)N[C@H]1CCc2cc(OC)c(OC)c(OC)c2-c2ccc(SC)c(=O)cc21`, for which the GI50 was 2.2 µM (inactive) in the assay with ACHN; 0.29 µM (active) in the assay with KM12; 0.29 µM (active) in the assay on NCI-H23; 3.02 µM (inactive) in the assay with RXF 393; 3.64 µM (inactive) with RPMI-8226; 0.486 µM (active) in the assay with A549. Further, the GI50 was 0.187 µM (active) with COLO 205; 0.294 µM (active) in the assay with U-251; 3.24 µM (inactive) with OVCAR-4; 0.356 µM (active) in the assay on CCRF-CEM; 1.15 µM with HCT-15; 0.601 µM (active) with UACC-62. For the same compound, the GI50 with SF-539 is 0.294 µM (active); in the assay on SF-295, 0.664 µM (active); in the assay on HOP-62 it was 7.73 µM (inactive); in the assay with SNB-75, 0.238 µM (active); with OVCAR-8 it was 0.557 µM (active).
`CC(C)CCNC(=O)c1ccc(CNC(=O)/C=C/c2ccc(-c3ccccc3[N+](=O)[O-])o2)cc1`: the GI50 with PC-3 is > 100 µM (inactive); with ACHN, 53.2 µM (inactive); with KM12 it was 32.5 µM (inactive); with NCI-H23 it was 82.8 µM (inactive); in the assay with RXF 393 it was > 100 µM (inactive); in the assay on RPMI-8226 it was 96.8 µM (inactive). For the same compound, the GI50 in the assay with A549 is 68.2 µM (inactive); in the assay with COLO 205 it was > 100 µM (inactive); in the assay with U-251, 56.8 µM (inactive); with OVCAR-4, 14.4 µM (inactive); in the assay with CCRF-CEM it was 12.2 µM (inactive); in the assay with HCT-15, above 100 µM. Also, the GI50 in the assay on UACC-62 was 16 µM (inactive); in the assay with DU-145 it was 64.9 µM (inactive); in the assay on SF-295, 42.7 µM (inactive); in the assay on HOP-62, 24.3 µM (inactive); in the assay on SNB-75, 25 µM (inactive); in the assay with OVCAR-8, 26.6 µM (inactive).
As for `CC(=O)Nc1ccc(SC#N)c2c(NC(C)=O)cccc12`, the GI50 in the assay with ACHN was > 100 µM (inactive); in the assay on KM12, > 66.8 µM (inactive); in the assay on NCI-H23, > 100 µM (inactive); in the assay on RXF 393 it was > 100 µM (inactive); in the assay on RPMI-8226, 24.4 µM (inactive); in the assay on A549 it was > 100 µM (inactive). In addition, the GI50 in the assay on COLO 205 was > 68.4 µM (inactive); in the assay with U-251 it was > 100 µM (inactive); with OVCAR-4 it was > 92.9 µM (inactive); in the assay on CCRF-CEM it was 30.3 µM (inactive); with HCT-15, 53.8 µM; with UACC-62, 78.3 µM (inactive). Moreover, the GI50 in the assay on SF-539, in the assay with SF-295, with HOP-62, with SNB-75 and in the assay on OVCAR-8 was > 100 µM (inactive) each time.
In the case of `COC(=O)c1ccc2c(c1)CC1(C2)Cc2cc3c(cc2C1=O)CCC3` (stereo not given), the GI50 in the assay on PC-3 was 39.4 µM (inactive); with ACHN, 34.9 µM (inactive); in the assay on KM12, 9.46 µM (inactive); in the assay on NCI-H23, 43.6 µM (inactive); in the assay with RXF 393, 30.1 µM (inactive); in the assay with RPMI-8226, 13.2 µM (inactive). Moreover, the GI50 in the assay with A549 is 36.7 µM (inactive); in the assay with COLO 205, 14.8 µM (inactive); in the assay on U-251, 33.7 µM (inactive); in the assay on OVCAR-4 it was 24.7 µM (inactive); in the assay on CCRF-CEM, 15 µM (inactive); in the assay with HCT-15, 34.9 µM. Further, the GI50 was > 100 µM (inactive) with SF-539; 57.7 µM (inactive) in the assay on DU-145; 56.5 µM (inactive) in the assay on SF-295; 46.5 µM (inactive) with HOP-62; 21.6 µM (inactive) in the assay with SNB-75; 31.6 µM (inactive) in the assay on OVCAR-8.
Take `CC(=O)OCCOCNC(=S)N/N=C/c1ccc([N+](=O)[O-])s1`: the GI50 with ACHN was 46.5 µM (inactive); with KM12 it was 34.4 µM (inactive); in the assay with NCI-H23 it was 19 µM (inactive); with RXF 393, > 100 µM (inactive); in the assay with RPMI-8226, 29.1 µM (inactive); in the assay on A549 it was 43.4 µM (inactive). Further, the GI50 was 2.08 µM (inactive) in the assay on COLO 205; 32.1 µM (inactive) in the assay on U-251; 64.1 µM (inactive) with OVCAR-4; 4.72 µM (inactive) in the assay with CCRF-CEM; 30.4 µM in the assay with HCT-15; 24.3 µM (inactive) with UACC-62. Further, the GI50 in the assay on SF-539 was 34 µM (inactive); in the assay on SF-295 it was 40.4 µM (inactive); in the assay with HOP-62, > 100 µM (inactive); in the assay with SNB-75 it was > 100 µM (inactive); in the assay on OVCAR-8, 45.5 µM (inactive).
As to `CCOC(=O)C1=C(O)C(=O)c2ccccc2C1=O`, the GI50 in the assay with ACHN was > 100 µM (inactive); in the assay on KM12, > 100 µM (inactive); in the assay with NCI-H23, 44.3 µM (inactive); in the assay on RXF 393, > 100 µM (inactive); in the assay on RPMI-8226 it was > 100 µM (inactive); in the assay with A549, > 100 µM (inactive). Moreover, the GI50 with COLO 205 was > 100 µM (inactive); in the assay with U-251, > 100 µM (inactive); in the assay with OVCAR-4, > 100 µM (inactive); in the assay with CCRF-CEM, > 100 µM (inactive); with HCT-15 it was above 100 µM; in the assay with UACC-62, 48 µM (inactive). Further, the GI50 with SF-539 is > 100 µM (inactive); in the assay with SF-295, 96.6 µM (inactive); in the assay with HOP-62 it was > 100 µM (inactive); in the assay on SNB-75, > 100 µM (inactive); in the assay with OVCAR-8, > 100 µM (inactive).
